Assays:
[1] = test system: BLM-treated C57BL/6 WT mice; assay: Bleomycin-induced lung fibrosis in mice, CMH by oropharyngeal aspiration; format: in vivo, mouse
Description: Animals C57BL/6 and mutant mice, male, 11-12 weeks old (Harlan Sprague Dawley, Indianapolis, IN, USA) were used. SIRT1 dominant-negative mice carry a point mutation (H355Y), Sirt1^tm2.1Mcby (Sirt1^y/y, RBRC05324, RIKEN Bio Resource Center, Japan) that ablates SIRT1 enzymatic activity, described in Gabay et al., Arthritis Rheum. 65: 159-166, 2013; and Seifert et al., FASEB J. 26: 555-566, 2012. Mice were maintained under specific pathogen-free conditions with adherence to institutional guidelines for the care and use of laboratory animals. Chimeric mice with SIRT1-deficient mice and WT hematopoietic cells were generated as described in Golan-Gerstl et al., Am. J. Respir Cell Mol. Biol. 36: 270-275, 2007.
Oropharyngeal aspiration (OA) and induction of lung fibrosis in mice Oropharyngeal aspiration of BLM (OA-BLM) was performed as detailed in Golan-Gerstl et al., Am. J. Respir. Cell Mol. Biol. 36: 270-275, 2007. Lung fibrosis was assessed via semi-quantitative morphological index (Wallach-Dayan et al., PNAS USA 104: 20460-20465, 2007). Lung collagen was measured using a Sircol Collagen Assay kit (Biocolor, Belfast, Northern Ireland), and standard protocol of trichrome staining. Isolation of mouse lung myofibroblasts Myofibroblast isolation and culture was performed as described in Golan-Gerstl et al., Am. J. Respir. Cell Mol. Biol. 36: 270-275, 2007; and Wallach-Dayan et al., PNAS USA 104: 20460-20465, 2007.
Immunohistochemistry (IHC) staining of lung tissue sections was performed as described in Golan-Gerstl et al., Am. J. Respir Cell Mol. Biol. 36: 270-275, 2007; and Wallach-Dayan et al., PNAS USA 104: 20460-20465, 2007.
CMH (30 μM) or control vehicle 4% DMSO were administered into WT mice by a second OA on day 6 of OA-BLM (0.05 mU), or control-saline (FIG. 6A). Similar to SIRT1^y/y mice, BLM-treated mice and control saline-treated mice (FIG. 6B) that were exposed to CMH vs. vehicle alone, had low SIRT1 and FLIP expression in lung sections. Myofibroblasts isolated from lungs of BLM-treated mice had decreased Ku70 binding to SIRT1 from 1.2 to 0.6 (FIG. 6C), increased Ku70 acetylation from an OD of 0.1 to 0.91 (FIG. 6D), and decreased Ku70/FLIP complex from an OD of 2.43 to 1.55 (FIG. 6E). Compared to vehicle, CMH-treated mice reduced H&E and collagen-trichrome staining (FIG. 6F, upper and lower panels, respectively), SMI grade (average SMI from 2 to 1.1, FIG. 6G), and collagen in Sircol assay (from 200 μg to only 50 μg, FIG. 6H). Thus, In vivo inhibition of SIRT1 activity, FLIP expression, and lung fibrosis were detected in CMH-BLM-treated mice and attenuation of deacetylation activity on Ku70, a decrease in Ku70/FLIP complex, and FLIP expression levels were detected in myofibroblasts isolated from lungs of CMH-BLM-treated mice. SIRT1-mediated Ku70-deacetylation may therefore stabilize FLIP via Ku70/FLIP complex in lung myofibroblasts promoting fibrosis, which can be inhibited by CMH.

HDAC4 = HDAC4 (Homo sapiens, UniProt P56524); conditions: prostate cancer cells; cited from earlier work
HDAC7 = target: T1, HDAC7 (Homo sapiens, UniProt Q8WUI4); conditions: prostate cancer cells; cited from earlier work
T1 sequence (Q8WUI4 1-952): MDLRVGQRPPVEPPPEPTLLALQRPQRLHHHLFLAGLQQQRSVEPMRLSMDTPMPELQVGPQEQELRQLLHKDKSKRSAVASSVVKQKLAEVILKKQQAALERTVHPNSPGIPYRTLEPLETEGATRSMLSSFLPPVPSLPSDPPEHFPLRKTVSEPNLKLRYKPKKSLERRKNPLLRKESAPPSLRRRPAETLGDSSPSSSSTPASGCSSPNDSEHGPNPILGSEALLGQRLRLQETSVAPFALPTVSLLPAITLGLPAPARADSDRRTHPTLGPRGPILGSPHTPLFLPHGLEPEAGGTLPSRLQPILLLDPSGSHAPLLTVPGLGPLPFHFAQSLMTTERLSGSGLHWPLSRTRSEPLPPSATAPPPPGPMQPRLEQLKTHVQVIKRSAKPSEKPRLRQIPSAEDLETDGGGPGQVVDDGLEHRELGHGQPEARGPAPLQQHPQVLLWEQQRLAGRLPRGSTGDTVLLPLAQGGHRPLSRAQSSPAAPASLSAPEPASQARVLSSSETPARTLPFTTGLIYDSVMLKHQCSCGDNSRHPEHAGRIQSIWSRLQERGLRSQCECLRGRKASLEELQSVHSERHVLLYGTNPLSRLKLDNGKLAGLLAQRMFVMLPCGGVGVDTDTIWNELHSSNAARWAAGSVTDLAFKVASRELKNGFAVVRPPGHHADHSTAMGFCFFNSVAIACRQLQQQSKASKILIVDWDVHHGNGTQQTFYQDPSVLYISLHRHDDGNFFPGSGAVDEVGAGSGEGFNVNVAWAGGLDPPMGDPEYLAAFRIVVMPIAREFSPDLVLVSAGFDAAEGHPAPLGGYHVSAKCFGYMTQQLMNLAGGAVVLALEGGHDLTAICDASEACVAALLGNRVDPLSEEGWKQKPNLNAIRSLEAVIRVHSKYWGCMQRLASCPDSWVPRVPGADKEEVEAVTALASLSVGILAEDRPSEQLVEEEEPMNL

[2] = cited from earlier work
[3] = CMH 30 μM by OA on day 6 of OA-BLM, vs. vehicle

Sequence of HDAC4 (P56524 whole entry, species assumed): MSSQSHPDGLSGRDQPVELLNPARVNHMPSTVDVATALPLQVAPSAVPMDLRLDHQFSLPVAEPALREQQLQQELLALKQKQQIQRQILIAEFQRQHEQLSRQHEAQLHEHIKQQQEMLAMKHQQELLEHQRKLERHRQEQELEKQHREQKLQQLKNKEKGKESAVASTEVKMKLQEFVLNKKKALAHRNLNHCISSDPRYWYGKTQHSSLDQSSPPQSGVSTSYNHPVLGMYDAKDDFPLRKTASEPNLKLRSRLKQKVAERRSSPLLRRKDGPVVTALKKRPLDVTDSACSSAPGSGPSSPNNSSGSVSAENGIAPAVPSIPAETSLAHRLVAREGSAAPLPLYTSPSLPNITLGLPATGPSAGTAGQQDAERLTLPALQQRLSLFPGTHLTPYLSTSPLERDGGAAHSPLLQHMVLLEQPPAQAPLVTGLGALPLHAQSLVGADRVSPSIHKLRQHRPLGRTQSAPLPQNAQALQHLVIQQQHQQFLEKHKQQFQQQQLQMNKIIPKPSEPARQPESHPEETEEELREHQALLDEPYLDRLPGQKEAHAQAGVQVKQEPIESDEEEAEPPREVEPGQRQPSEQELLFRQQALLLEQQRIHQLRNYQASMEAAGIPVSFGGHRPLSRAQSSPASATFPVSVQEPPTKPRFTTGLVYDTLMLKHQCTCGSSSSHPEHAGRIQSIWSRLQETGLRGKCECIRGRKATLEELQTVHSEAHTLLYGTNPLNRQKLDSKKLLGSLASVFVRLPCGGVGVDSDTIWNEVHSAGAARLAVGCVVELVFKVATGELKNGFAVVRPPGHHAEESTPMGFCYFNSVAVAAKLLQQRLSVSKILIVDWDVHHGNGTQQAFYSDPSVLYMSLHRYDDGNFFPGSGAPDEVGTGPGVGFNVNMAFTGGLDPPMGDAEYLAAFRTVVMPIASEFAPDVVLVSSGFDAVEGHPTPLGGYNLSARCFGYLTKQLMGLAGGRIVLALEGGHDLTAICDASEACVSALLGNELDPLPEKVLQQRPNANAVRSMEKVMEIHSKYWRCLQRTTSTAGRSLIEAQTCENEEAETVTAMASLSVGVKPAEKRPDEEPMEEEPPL

SMILES: Cc1cc(Cl)ccc1OCCCC(=O)NO [CMH, 4-(4-chloro-2-methylphenoxy)-N-hydroxybutanamide]
- H&E and collagen-trichrome staining of lung tissue sections ([1]; CMH 30 μM OA day 6, day 14 post BLM, compared to vehicle): reduced
- Collagen in Sircol assay ([1]; CMH 30 μM OA day 6, day 14 post BLM, vehicle 200 μg): 50 µg
- Average SMI grade (semi-quantitative morphological index) ([1]; CMH 30 μM OA day 6, day 14 post BLM, vehicle 2): 1.1
- FLIP expression in lung sections (IHC) [1, 3]: low
- SIRT1 expression in lung sections (IHC) [1, 3]: low
- Inhibition of HDAC4 (HDAC4): not inhibited
- Inhibition of HDAC7 (HDAC7): not inhibited
- Water solubility [2]: low
